This note sets out measurements from article PMC10447463, “Data-mining unveils structure–property–activity correlation of viral infectivity enhancing self-assembling peptides” (Nature Communications, 2023).

Data set [1] is classed as physicochemical. The note with it: for ThT Cat. / ThT-Fluorescence (categorical): ThT-active if fluorescence at least twice the control. Summed up: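 Preformed peptide fibrils (1 mg/mL) mixed with 50 µM ThT in PBS, 15 min at RT, fluorescence ex 440/em 488 nm versus PBS blank, triplicates. Zeta potential: peptides at 1 mg/mL in PBS pH 7.4, aged 1 d at RT, diluted in 1 mM KCl, Smoluchowski from electrophoretic mobility.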

Data set [2] can be described thus: Turbidity, derived count rate of scattered light. The note with it: for Count Rate: derived count rate of scattered light (turbidity); for Log10 Count Rate: turbidity, derived count rate of scattered light, data of Figure 2D. It counts as physicochemical.
Data set [3] in a line: β-sheet content by ATR-FT-IR. In kind it is physicochemical. The note with it: for b -sheet / %: Fig. S7 panel A, β-sheet content by ATR-FT-IR. In short, it runs like this:
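β-sheet content came from ATR FT-IR spectra of lyophilized 1 mg/mL nanofibril solution (64 scans, 2 cm^-1 resolution). Conversion was measured by separating free monomer with a 3 kDa cutoff filter, then comparing fluorescamine fluorescence (ex 365/em 470 nm, 20 min RT) of filtrate versus unfiltered sample, in triplicate.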

Where [4] appears, read: ThT fluorescence category, 1 if Rel. ThT >2.

Where two headings read alike, the source gives them in different places.

For the substance KYKYQY, the “Tht category (> 2 to blank = +)” value was 1 (ThT. Cat is 1, if Rel. ThT >2) in data set [1] (Fig S10 panel D) and 1 (ThT. Cat is 1, if Rel. ThT >2) in data set [1] (FigS12 panel A). For the same substance, the “ThT Cat,” value was 1 (ThT. Cat is 1, if Rel. ThT >2) in data set [1] (FigS12 panel B) and 1 (ThT. Cat is 1, if Rel. ThT >2) in data set [1] (ThT category, 1 if Rel. ThT >2). In addition, in data set [1] (setting [4]), the “ThT Cat.” value is reported as 1 (ThT. Cat is 1, if Rel. ThT >2). Besides, the “ThT Cat. / ThT-Fluorescence (categorical)” value (“ThT Cat. / ThT-Fluorescence” below) in data set [1] is on record as 1 (ThT. Cat is 1, if Rel. ThT >2). In addition, the “Count Rate” value in data set [2] stood at 31.53. In data set [2], the “Log10 Count Rate” value was determined as 1.499. Further, in data set [3], the “b -sheet / %” value was determined as 0%.

For KIKIKIKIYYYY, the “Tht category (> 2 to blank = +)” value in data set [1] (Fig S10 panel D) is 0 (ThT-inactive (N-Fold <2)). Besides, the “ThT Cat,” value in data set [1] (ThT category, 1 if Rel. ThT >2) is 0 (ThT-inactive (N-Fold <2)). Further, the “ThT Cat.” value in data set [1] (setting [4]) was 0 (ThT-inactive (N-Fold <2)). Besides, the “ThT Cat. / ThT-Fluorescence” value in data set [1] is 0 (ThT-inactive (N-Fold <2)). For the same substance, in data set [2], the “Count Rate” value is recorded as 9918 and the “Log10 Count Rate” value came out at 3.996. In addition, in data set [3], the “b -sheet / %” value turned out to be 56.7%. In data set [3] (peptides with TEM 2cat 0), this substance showed a beta sheet of 57.

Take MKFKFQF: the “Tht category (> 2 to blank = +)” value in data set [1] (Fig S10 panel D) and in data set [1] (FigS12 panel A) was 0 (ThT-inactive (N-Fold <2)) each time. Further, the “ThT Cat.” value is 0 (ThT-inactive (N-Fold <2)) in data set [1] (Fig S10 panel E) and 0 (ThT-inactive (N-Fold <2)) in data set [1] (ThT category, 1 if Rel. ThT >2). Besides, the “ThT Cat,” value in data set [1] (FigS12 panel B) is 0 (ThT-inactive (N-Fold <2)); in data set [1] (ThT category, 1 if Rel. ThT >2) it was 0 (ThT-inactive (N-Fold <2)). In addition, in data set [1], the “ThT Cat. / ThT-Fluorescence” value is 0 (ThT-inactive (N-Fold <2)). In addition, in data set [2], the “Count Rate” value was determined as 124. The “Log10 Count Rate” value in data set [2] came out at 2.0933. Also, the “b -sheet / %” value in data set [3] turned out to be 21.97%.

Consider KIKQIINMWQ, for which the “Tht category (> 2 to blank = +)” value in data set [1] (Fig S10 panel D) was 1 (ThT. Cat is 1, if Rel. ThT >2). Besides, the “ThT Cat.” value in data set [1] (Fig S10 panel E) is reported as 1 (ThT. Cat is 1, if Rel. ThT >2). Moreover, in data set [1] (ThT category, 1 if Rel. ThT >2), the “ThT Cat,” value is 1 (ThT. Cat is 1, if Rel. ThT >2) and the “ThT Cat.” value was 1 (ThT. Cat is 1, if Rel. ThT >2). The “ThT Cat. / ThT-Fluorescence” value in data set [1] is 1 (ThT. Cat is 1, if Rel. ThT >2). In data set [2], the “Count Rate” value is 615.5 and the “Log10 Count Rate” value was found to be 2.789. Further, the “b -sheet / %” value in data set [3] is given as 40.68%.

As for KNDKND, in data set [1] (Fig S10 panel D), the “Tht category (> 2 to blank = +)” value is 0 (ThT-inactive (N-Fold <2)). The “Tht category (> 2 to blank = +)” value in data set [1] (FigS12 panel A) is 0 (ThT-inactive (N-Fold <2)). Besides, the “ThT Cat,” value in data set [1] (FigS12 panel B) was 0 (ThT-inactive (N-Fold <2)). In data set [1] (ThT category, 1 if Rel. ThT >2), the “ThT Cat,” value is 0 (ThT-inactive (N-Fold <2)) and the “ThT Cat.” value was 0 (ThT-inactive (N-Fold <2)). The “ThT Cat. / ThT-Fluorescence” value in data set [1] is 0 (ThT-inactive (N-Fold <2)). Besides, in data set [2], the “Count Rate” value was 52.4 and the “Log10 Count Rate” value amounted to 1.719. For the same substance, the “b -sheet / %” value in data set [3] is on record as 43.2531%.

QCKIKIQI: the “Tht category (> 2 to blank = +)” value in data set [1] (Fig S10 panel D) is 1 (ThT. Cat is 1, if Rel. ThT >2). Also, in data set [1] (ThT category, 1 if Rel. ThT >2), the “ThT Cat,” value was 1 (ThT. Cat is 1, if Rel. ThT >2) and the “ThT Cat.” value is given as 1 (ThT. Cat is 1, if Rel. ThT >2). Also, the “ThT Cat. / ThT-Fluorescence” value in data set [1] is recorded as 1 (ThT. Cat is 1, if Rel. ThT >2). Further, in data set [2], the “Count Rate” value was 12426.83333 and the “Log10 Count Rate” value was 4.094. The “b -sheet / %” value in data set [3] is 35.27%.

Turning to KWKWQW, the “Tht category (> 2 to blank = +)” value in data set [1] (Fig S10 panel D) and in data set [1] (FigS12 panel A) was 0 (ThT-inactive (N-Fold <2)) throughout. The “ThT Cat,” value in data set [1] (FigS12 panel B) is 0 (ThT-inactive (N-Fold <2)); in data set [1] (ThT category, 1 if Rel. ThT >2), 0 (ThT-inactive (N-Fold <2)). For the same substance, the “ThT Cat.” value in data set [1] (setting [4]) was 0 (ThT-inactive (N-Fold <2)). Also, the “ThT Cat. / ThT-Fluorescence” value in data set [1] was 0 (ThT-inactive (N-Fold <2)). Further, the “Count Rate” value in data set [2] is given as 1545. Moreover, the “Log10 Count Rate” value in data set [2] is 3.189. The “b -sheet / %” value in data set [3] is reported as 30.47%.

Consider CEIEIQI, for which the “Tht category (> 2 to blank = +)” value in data set [1] (Fig S10 panel D) is 1 (ThT. Cat is 1, if Rel. ThT >2); in data set [1] (FigS12 panel A), 1 (ThT. Cat is 1, if Rel. ThT >2). Also, the “ThT Cat.” value in data set [1] (Fig S10 panel E) is 1 (ThT. Cat is 1, if Rel. ThT >2); in data set [1] (ThT category, 1 if Rel. ThT >2), 1 (ThT. Cat is 1, if Rel. ThT >2). For the same substance, the “ThT Cat,” value was 1 (ThT. Cat is 1, if Rel. ThT >2) in data set [1] (FigS12 panel B) and 1 (ThT. Cat is 1, if Rel. ThT >2) in data set [1] (ThT category, 1 if Rel. ThT >2). The “ThT Cat. / ThT-Fluorescence” value in data set [1] is on record as 1 (ThT. Cat is 1, if Rel. ThT >2). Moreover, the “Count Rate” value in data set [2] is recorded as 51.97. The “Log10 Count Rate” value in data set [2] is listed as 1.716. In addition, the “b -sheet / %” value in data set [3] turned out to be 45%.
